According to ChEMBL document CHEMBL5303573, “Mapping human microbiome drug metabolism by gut bacteria and their genes” (Nature, 2019):

Legend:
[1] = parabacteroides johnsonii, 12 h, 2 µM
Description: The drug is tested on Parabacteroides johnsonii strain: DSM18315 for biotransformation. The drug concentrations were measured before and after a 12-h incubation by liquid-chromatography-coupled mass spectrometry (LC–MS)

[2] = bacteroides fragilis, 12 h, 2 µM
Description: The drug is tested on Bacteroides fragilis strain: 3397 (T10) for biotransformation. The drug concentrations were measured before and after a 12-h incubation by liquid-chromatography-coupled mass spectrometry (LC–MS)

[3] = The drug is tested on Escherichia coli strain: BW25113 for biotransformation. The drug concentrations were measured before and after a 12-h incubation by liquid-chromatography-coupled mass spectrometry (LC–MS); conditions: 2 µM
[4] = The drug is tested on Ruminococcus torques strain: ATCC27756 for biotransformation. The drug concentrations were measured before and after a 12-h incubation by liquid-chromatography-coupled mass spectrometry (LC–MS); assay type: ADME; parameters: dose 2 uM, timepoint 0 vs 12 hours; conditions: 2 µM
[5] = The drug is tested on Collinsella aerofaciens strain: ATCC25986 for biotransformation. The drug concentrations were measured before and after a 12-h incubation by liquid-chromatography-coupled mass spectrometry (LC–MS); conditions: 2 µM
[6] = The drug is tested on Bacteroides pectinophilus strain: ATCC43243 for biotransformation. The drug concentrations were measured before and after a 12-h incubation by liquid-chromatography-coupled mass spectrometry (LC–MS); conditions: 2 µM
[7] = The drug is tested on Enterobacter cancerogenus strain: ATCC35316 for biotransformation. The drug concentrations were measured before and after a 12-h incubation by liquid-chromatography-coupled mass spectrometry (LC–MS); conditions: 2 µM
[8] = The drug is tested on Eubacterium hallii strain: DSM3353 for biotransformation. The drug concentrations were measured before and after a 12-h incubation by liquid-chromatography-coupled mass spectrometry (LC–MS); conditions: anaerobutyricum hallii, 2 µM
[9] = The drug is tested on Clostridium scindens strain: ATCC35704 for biotransformation. The drug concentrations were measured before and after a 12-h incubation by liquid-chromatography-coupled mass spectrometry (LC–MS); conditions: 2 µM
[10] = The drug is tested on Clostridium symbiosum strain: ATCC14940 for biotransformation. The drug concentrations were measured before and after a 12-h incubation by liquid-chromatography-coupled mass spectrometry (LC–MS); conditions: 2 µM
[11] = The drug is tested on Providencia stuartii strain: ATCC25827 for biotransformation. The drug concentrations were measured before and after a 12-h incubation by liquid-chromatography-coupled mass spectrometry (LC–MS); conditions: 2 µM
[12] = The drug is tested on Clostridium ramosum strain: DSM1402 for biotransformation. The drug concentrations were measured before and after a 12-h incubation by liquid-chromatography-coupled mass spectrometry (LC–MS); conditions: thomasclavelia ramosa, 2 µM
[13] = bacteroides thetaiotaomicron, 12 h, 2 µM
Description: The drug is tested on Bacteroides thetaiotaomicron strain: VPI-5482 for biotransformation. The drug concentrations were measured before and after a 12-h incubation by liquid-chromatography-coupled mass spectrometry (LC–MS)

[14] = The drug is tested on Providencia rettgeri strain: DSM1131 for biotransformation. The drug concentrations were measured before and after a 12-h incubation by liquid-chromatography-coupled mass spectrometry (LC–MS); assay type: ADME; parameters: dose 2 uM, timepoint 0 vs 12 hours; conditions: 2 µM
[15] = bifidobacterium adolescentis, 12 h, 2 µM
Description: The drug is tested on Bifidobacterium adolescentis strain: ATCC 15703 for biotransformation. The drug concentrations were measured before and after a 12-h incubation by liquid-chromatography-coupled mass spectrometry (LC–MS)

[16] = The drug is tested on Bifidobacterium longum subsp. Infantis strain: CCUG52486 for biotransformation. The drug concentrations were measured before and after a 12-h incubation by liquid-chromatography-coupled mass spectrometry (LC–MS); conditions: 2 µM
[17] = enterocloster bolteae, 12 h, 2 µM
Description: The drug is tested on Clostridium bolteae strain: ATCCBAA-613 for biotransformation. The drug concentrations were measured before and after a 12-h incubation by liquid-chromatography-coupled mass spectrometry (LC–MS)

[18] = The drug is tested on Bacteroides sp. WH2 strain: WH2 for biotransformation. The drug concentrations were measured before and after a 12-h incubation by liquid-chromatography-coupled mass spectrometry (LC–MS); conditions: bacteroides sp. wh2, 12 h, 2 µM
[19] = The drug is tested on Blautia hansenii strain: DSM20583 for biotransformation. The drug concentrations were measured before and after a 12-h incubation by liquid-chromatography-coupled mass spectrometry (LC–MS); conditions: 2 µM
[20] = parabacteroides distasonis, 12 h, 2 µM
Description: The drug is tested on Parabacteroides distasonis strain: ATCC8503 for biotransformation. The drug concentrations were measured before and after a 12-h incubation by liquid-chromatography-coupled mass spectrometry (LC–MS)

Compound | Bacterial Biotransformation [1] | Bacterial Biotransformation [2] | Bacterial Biotransformation [3] | Bacterial Biotransformation [4] | Bacterial Biotransformation [5] | Bacterial Biotransformation [6] | Bacterial Biotransformation [7] | Bacterial Biotransformation [8] | Bacterial Biotransformation [9] | Bacterial Biotransformation [10] | Bacterial Biotransformation [11] | Bacterial Biotransformation [12] | Bacterial Biotransformation [13] | Bacterial Biotransformation [14] | Bacterial Biotransformation [15] | Bacterial Biotransformation [16] | Bacterial Biotransformation [17] | Bacterial Biotransformation [18] | Bacterial Biotransformation [19] | Bacterial Biotransformation [20]
CCCC(=O)Nc1ccc(OCC(O)CNC(C)C)c(C(C)=O)c1 (stereo not drawn) [ACEBUTOLOL] | Compound NOT metabolized | Compound NOT metabolized | Compound NOT metabolized | Compound NOT metabolized | Compound NOT metabolized | Compound NOT metabolized | Compound NOT metabolized | Compound NOT metabolized | Compound NOT metabolized | Compound NOT metabolized | Compound NOT metabolized | Compound NOT metabolized | Compound NOT metabolized | Compound NOT metabolized | Compound NOT metabolized | Compound NOT metabolized | Compound NOT metabolized | Compound NOT metabolized |  | 
C=CCc1ccccc1OCC(O)CNC(C)C (stereo not drawn) [ALPRENOLOL] |  | Compound NOT metabolized |  | Compound NOT metabolized | Compound NOT metabolized |  |  | Compound NOT metabolized | Compound NOT metabolized | Compound NOT metabolized | Compound NOT metabolized |  | Compound NOT metabolized | Compound NOT metabolized | Compound NOT metabolized |  | Compound NOT metabolized | Compound NOT metabolized | Compound NOT metabolized | 
CCN1CCCC1CNC(=O)c1cc(S(=O)(=O)CC)c(N)cc1OC (stereo not drawn) [AMISULPRIDE] | Compound NOT metabolized | Compound NOT metabolized | Compound NOT metabolized | Compound NOT metabolized | Compound NOT metabolized | Compound NOT metabolized | Compound NOT metabolized | Compound NOT metabolized | Compound NOT metabolized | Compound NOT metabolized | Compound NOT metabolized | Compound NOT metabolized | Compound NOT metabolized | Compound NOT metabolized | Compound NOT metabolized | Compound NOT metabolized | Compound NOT metabolized | Compound NOT metabolized |  | Compound NOT metabolized
CN1CCC(=C2c3ccccc3CCc3cccnc32)CC1.O=C(O)/C=C\C(=O)O.O=C(O)/C=C\C(=O)O [AZATADINE MALEATE] | Compound NOT metabolized | Compound NOT metabolized | Compound NOT metabolized | Compound NOT metabolized | Compound NOT metabolized | Compound NOT metabolized | Compound NOT metabolized | Compound NOT metabolized | Compound NOT metabolized | Compound NOT metabolized | Compound NOT metabolized | Compound NOT metabolized | Compound NOT metabolized | Compound NOT metabolized | Compound NOT metabolized | Compound NOT metabolized | Compound NOT metabolized | Compound NOT metabolized |  | Compound NOT metabolized
C[N+]12CCC(CC1)C(OC(=O)C(O)(c1ccccc1)c1ccccc1)C2.[Br-] (stereo not drawn) [CLIDINIUM BROMIDE] | Compound NOT metabolized | Compound NOT metabolized | Compound NOT metabolized |  | Compound NOT metabolized |  |  | Compound NOT metabolized | Compound NOT metabolized | Compound NOT metabolized | Compound NOT metabolized |  | Compound NOT metabolized | Compound NOT metabolized | Compound NOT metabolized | Compound NOT metabolized |  | Compound NOT metabolized | Compound NOT metabolized | Compound NOT metabolized
Clc1cccc(Cl)c1N=C1NCCN1 [CLONIDINE] | Compound NOT metabolized | Compound metabolized | Compound NOT metabolized | Compound NOT metabolized | Compound NOT metabolized | Compound NOT metabolized | Compound NOT metabolized | Compound NOT metabolized | Compound NOT metabolized | Compound NOT metabolized | Compound NOT metabolized | Compound NOT metabolized | Compound metabolized | Compound NOT metabolized | Compound NOT metabolized | Compound NOT metabolized | Compound NOT metabolized | Compound NOT metabolized |  | Compound NOT metabolized
CC[C@H](C)C(=O)O[C@H]1C[C@@H](C)C=C2C=C[C@H](C)[C@H](CC[C@@H]3C[C@@H](O)CC(=O)O3)[C@H]21 [LOVASTATIN] | Compound metabolized | Compound metabolized | Compound NOT metabolized | Compound NOT metabolized | Compound NOT metabolized |  | Compound metabolized | Compound metabolized | Compound metabolized | Compound NOT metabolized |  | Compound NOT metabolized | Compound NOT metabolized | Compound metabolized | Compound metabolized | Compound NOT metabolized | Compound NOT metabolized | Compound NOT metabolized |  | Compound metabolized
COc1ccc2c(c1OC)C(=O)O[C@@H]2[C@H]1c2c(cc3c(c2OC)OCO3)CCN1C [NOSCAPINE] | Compound metabolized | Compound NOT metabolized | Compound NOT metabolized | Compound metabolized | Compound metabolized | Compound metabolized | Compound metabolized | Compound metabolized | Compound metabolized | Compound metabolized | Compound metabolized | Compound NOT metabolized | Compound metabolized | Compound metabolized | Compound NOT metabolized | Compound metabolized | Compound metabolized | Compound NOT metabolized |  | Compound metabolized
CC(=O)OCC(=O)NCCCOc1cccc(CN2CCCCC2)c1 [ROXATIDINE ACETATE] | Compound metabolized | Compound metabolized | Compound metabolized | Compound metabolized | Compound metabolized | Compound metabolized | Compound metabolized | Compound NOT metabolized | Compound metabolized | Compound NOT metabolized | Compound metabolized | Compound metabolized | Compound metabolized | Compound metabolized | Compound metabolized | Compound metabolized | Compound metabolized | Compound metabolized |  | Compound metabolized
